This assay deals with T1, human Nav1.7 (hNav1.7) (Homo sapiens, UniProt Q15858).
T1 construct: expressed in transfected cells; host or cells: HEK293T
Nature of the assay: Whole-cell patch-clamp inhibition of Nav1.7 currents in transfected HEK293T cells. The format is cell-based. The note with it: for inhibition at 10 µM: HEK-293T, read-out: Inhibitory activity (10 μM); for IC50: −80 mV holding, step to V1/2 of inactivation for 8 s, HEK293T. How it is done:
Human embryonic kidney (HEK) 293T (ATCC CRL-3216) and ND7/23 cells (National Collection of Authenticated Cell Cultures SCSP-5026) were cultured under standard conditions (5% CO2, 37 °C) in Dulbecco’s modified Eagle’s medium (DMEM) containing 10% fetal bovine serum and 1% penicillin-streptomycin solution(all from Gibco, Thermo Fisher Scientific, Waltham, MA, USA). When the cells reached 70% to 90% confluence, human Nav1.2 (hNav1.2), human Nav1.3 (hNav1.3), human Nav1.4 (hNav1.4), human Nav1.5 (hNav1.5), and mouse Nav1.6 (mNav1.6) channel plasmids were cotransfected with enhanced green fluorescent protein (eGFP) into HEK293T cells. Additionally, plasmids expressing β1 and β2 subunits tagged with eGFP were cotransfected with the human Nav1.7 (hNav1.7) channel into HEK293T cells. Human Nav1.8 (hNav1.8) was transiently transfected into ND7/23 cells, along with eGFP, using Lipofectamine 2000 (Invitrogen), adhering strictly to the manufacturer’s protocol. For manual patch-clamp experiments, the cells were plated onto glass coverslips and used within 20 to 48 h of transfection.
Whole-cell patch-clamp recordings were conducted at 25 ± 2 °C, utilizing an EPC 10USB patch-clamp amplifier (HEKA Elektronik, Lambrecht, Germany). Pipettes, with access resistance between 2.0 and 3.0 MΩ, were pulled from borosilicate glass capillary tubes using a 2-step vertical microelectrode puller (PC-10, Narishige Group, Tokyo, Japan). Voltage-clamp recordings were obtained with PatchMaster software v2 × 73 (HEKA Elektronik) 5 min after establishing whole-cell configuration, sampled at 20 kHz, and filtered at 5 kHz. To minimize voltage errors, 80% series resistance compensation was applied. Pipettes were filled with 140 mM CsF, 10 mM NaCl, 1 mM EGTA, and 10 mM HEPES (pH=7.4, adjusted with CsOH). The external solution contained 140 mM NaCl, 2 mM CaCl2, 1 mM MgCl2, 5 mM KCl, 10 mM HEPES, and 10 mM glucose (pH=7.4, adjusted with NaOH). IC50 values were determined in HEK293T or ND7/23 cell lines by voltage clamping at −80 mV, followed by stepping to the V1/2 of inactivation for 8 s to facilitate compound binding.
For orientation: In patch-clamp work, channel activity is measured electrically.

Where [1] appears, read: 10 μM compound, inhibition rate of Nav1.7.

T1 sequence (Q15858 whole entry): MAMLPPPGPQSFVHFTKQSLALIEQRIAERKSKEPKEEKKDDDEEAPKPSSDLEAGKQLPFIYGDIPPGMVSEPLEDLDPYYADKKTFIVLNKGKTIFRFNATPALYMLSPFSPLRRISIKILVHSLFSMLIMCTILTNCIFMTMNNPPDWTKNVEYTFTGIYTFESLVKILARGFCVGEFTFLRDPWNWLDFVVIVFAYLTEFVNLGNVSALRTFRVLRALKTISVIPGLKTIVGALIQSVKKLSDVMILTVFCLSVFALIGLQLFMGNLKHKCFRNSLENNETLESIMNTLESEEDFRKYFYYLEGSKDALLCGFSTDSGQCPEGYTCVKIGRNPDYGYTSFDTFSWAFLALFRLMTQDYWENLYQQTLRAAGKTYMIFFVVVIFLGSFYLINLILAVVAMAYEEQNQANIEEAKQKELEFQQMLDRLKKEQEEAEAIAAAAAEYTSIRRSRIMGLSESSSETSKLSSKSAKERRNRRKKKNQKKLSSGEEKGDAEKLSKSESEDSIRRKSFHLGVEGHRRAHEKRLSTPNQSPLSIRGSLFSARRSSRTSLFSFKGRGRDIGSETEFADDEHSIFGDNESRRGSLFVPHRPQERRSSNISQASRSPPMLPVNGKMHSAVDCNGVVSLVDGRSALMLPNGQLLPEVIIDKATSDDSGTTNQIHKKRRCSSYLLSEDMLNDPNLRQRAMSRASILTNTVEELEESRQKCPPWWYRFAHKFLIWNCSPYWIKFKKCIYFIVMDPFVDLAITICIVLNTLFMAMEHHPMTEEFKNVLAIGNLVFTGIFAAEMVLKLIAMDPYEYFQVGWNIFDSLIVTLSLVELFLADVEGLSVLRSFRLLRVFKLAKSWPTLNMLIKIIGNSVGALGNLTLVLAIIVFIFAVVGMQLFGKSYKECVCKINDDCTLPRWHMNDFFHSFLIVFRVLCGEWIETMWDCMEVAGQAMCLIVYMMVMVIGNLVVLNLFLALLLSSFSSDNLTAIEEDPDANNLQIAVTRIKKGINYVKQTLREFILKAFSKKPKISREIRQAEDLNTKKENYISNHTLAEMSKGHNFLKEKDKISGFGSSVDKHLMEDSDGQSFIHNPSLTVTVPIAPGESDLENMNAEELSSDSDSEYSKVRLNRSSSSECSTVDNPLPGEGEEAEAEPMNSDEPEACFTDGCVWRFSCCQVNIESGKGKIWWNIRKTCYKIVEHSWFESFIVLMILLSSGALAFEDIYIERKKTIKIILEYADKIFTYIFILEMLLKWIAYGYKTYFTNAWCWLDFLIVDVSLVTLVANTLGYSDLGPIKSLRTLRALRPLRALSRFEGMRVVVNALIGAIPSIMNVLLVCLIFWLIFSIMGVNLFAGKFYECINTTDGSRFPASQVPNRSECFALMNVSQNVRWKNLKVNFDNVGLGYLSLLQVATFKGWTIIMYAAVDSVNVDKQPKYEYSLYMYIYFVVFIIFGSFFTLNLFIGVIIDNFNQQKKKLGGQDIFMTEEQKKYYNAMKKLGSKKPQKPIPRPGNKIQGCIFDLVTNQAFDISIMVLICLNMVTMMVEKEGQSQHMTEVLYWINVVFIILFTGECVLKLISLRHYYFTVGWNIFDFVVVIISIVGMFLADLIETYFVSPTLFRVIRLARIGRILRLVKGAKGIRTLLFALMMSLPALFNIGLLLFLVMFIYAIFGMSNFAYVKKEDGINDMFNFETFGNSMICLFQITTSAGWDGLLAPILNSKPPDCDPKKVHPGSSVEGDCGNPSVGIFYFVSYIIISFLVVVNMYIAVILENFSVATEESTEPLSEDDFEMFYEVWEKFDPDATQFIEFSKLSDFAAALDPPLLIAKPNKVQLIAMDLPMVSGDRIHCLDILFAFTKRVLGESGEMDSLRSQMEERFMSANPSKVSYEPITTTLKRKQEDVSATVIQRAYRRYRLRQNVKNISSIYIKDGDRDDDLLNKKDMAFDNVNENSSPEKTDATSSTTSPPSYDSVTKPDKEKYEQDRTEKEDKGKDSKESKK
T1 sequence (Q07699 19-218 partner): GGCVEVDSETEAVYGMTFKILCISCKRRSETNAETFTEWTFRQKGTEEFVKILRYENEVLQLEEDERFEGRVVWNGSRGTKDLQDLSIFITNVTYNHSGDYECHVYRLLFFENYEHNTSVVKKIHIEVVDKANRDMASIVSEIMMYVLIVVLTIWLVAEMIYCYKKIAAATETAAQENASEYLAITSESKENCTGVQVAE
T1 sequence (O60939 30-215 partner): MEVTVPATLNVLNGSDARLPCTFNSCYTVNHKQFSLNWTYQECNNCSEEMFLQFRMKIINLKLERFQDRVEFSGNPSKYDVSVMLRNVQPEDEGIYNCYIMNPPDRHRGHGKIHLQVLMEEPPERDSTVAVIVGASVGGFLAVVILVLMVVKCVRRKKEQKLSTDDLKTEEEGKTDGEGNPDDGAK

With `O=C(CC(c1ccc(C(F)(F)F)cc1)c1cn(Cc2ccc(F)cc2)c2ccccc12)NCc1ccncc1` (stereo not shown) [B23, C1=CC=C2C(=C1)C(=CN2CC3=CC=C(C=C3)F)C(CC(=O)NCC4=CC=NC=C4)C5=CC=C(C=C5)C(F)(F)F], the inhibition at 10 µM under setting [1] turned out to be 18.2%. With `O=C(CC(c1ccc(C(F)(F)F)cc1)c1cn(Cc2ccc(F)cc2)c2ccccc12)NCCN1CCOCC1` (stereo not shown) [B24, C1COCCN1CCNC(=O)CC(C2=CC=C(C=C2)C(F)(F)F)C3=CN(C4=CC=CC=C43)CC5=CC=C(C=C5)F], under setting [1], the inhibition at 10 µM is 16%. Still for that read-out and setting: the result for `O=C(CC(c1ccc(C(F)(F)F)cc1)c1cn(Cc2ccc(F)cc2)c2ccccc12)N1CCCC1` (stereo not shown) [B25, C1CCN(C1)C(=O)CC(C2=CC=C(C=C2)C(F)(F)F)C3=CN(C4=CC=CC=C43)CC5=CC=C(C=C5)F] reads 23.1%.

Turning to `COc1cc(OC)cc(C(CC(=O)NCCc2ccccn2)c2cn(Cc3ccc(F)cc3)c3ccccc23)c1` (stereo not shown) [B26, COC1=CC(=CC(=C1)C(CC(=O)NCCC2=CC=CC=N2)C3=CN(C4=CC=CC=C43)CC5=CC=C(C=C5)F)OC], the inhibition at 10 µM under setting [1] turned out to be 26.1%.

For the molecule `O=C(CC(c1cccc(Cl)c1)c1cn(Cc2ccc(F)cc2)c2ccccc12)NCCc1ccccn1` (stereo not shown) [B27, C1=CC=C2C(=C1)C(=CN2CC3=CC=C(C=C3)F)C(CC(=O)NCCC4=CC=CC=N4)C5=CC(=CC=C5)Cl], under setting [1], the inhibition at 10 µM worked out at 16%.

For the molecule `O=C(CC(c1cccc(Oc2ccccc2)c1)c1cn(Cc2ccc(F)cc2)c2ccccc12)NCCc1ccccn1` (stereo not shown) [B28, C1=CC=C(C=C1)OC2=CC=CC(=C2)C(CC(=O)NCCC3=CC=CC=N3)C4=CN(C5=CC=CC=C54)CC6=CC=C(C=C6)F], under setting [1], the inhibition at 10 µM was found to be 29.2%. The same measure, in the same setting: the value for `COc1ccc(Cn2cc(C(CC(=O)NCCc3ccccn3)c3ccc(OC)cc3)c3ccccc32)cc1` (stereo not shown) [B29, COC1=CC=C(C=C1)CN2C=C(C3=CC=CC=C32)C(CC(=O)NCCC4=CC=CC=N4)C5=CC=C(C=C5)OC] was 9.42%; that for `COc1ccc(Cn2cc(C(CC(=O)NCCc3ccccn3)c3cccc(Cl)c3)c3ccccc32)cc1` (stereo not shown) [B30, COC1=CC=C(C=C1)CN2C=C(C3=CC=CC=C32)C(CC(=O)NCCC4=CC=CC=N4)C5=CC(=CC=C5)Cl] was 8.62%; that for `O=S(=O)(c1ccc(F)cc1)N(c1ccc2c(c1)OCO2)C1CCN(Cc2cccnc2)CC1` [B31, C1CN(CCC1N(C2=CC3=C(C=C2)OCO3)S(=O)(=O)C4=CC=C(C=C4)F)CC5=CN=CC=C5] was 16%. As for `O=C(CC(c1ccc(C(F)(F)F)cc1)c1cn(Cc2ccccc2)c2ccccc12)NCCc1ccccn1` (stereo not shown) [B32, C1=CC=C(C=C1)CN2C=C(C3=CC=CC=C32)C(CC(=O)NCCC4=CC=CC=N4)C5=CC=C(C=C5)C(F)(F)F], the inhibition at 10 µM under setting [1] came out at 16.6%.

Turning to `O=C(CC(c1cccc(C(F)(F)F)c1)c1cn(Cc2ccc(F)cc2)c2ccccc12)NCCc1ccccn1` (stereo not shown) [B33, C1=CC=C2C(=C1)C(=CN2CC3=CC=C(C=C3)F)C(CC(=O)NCCC4=CC=CC=N4)C5=CC(=CC=C5)C(F)(F)F], under setting [1], the inhibition at 10 µM was 19.8%. The same measure, in the same setting: the value for `CC(C)CNC(=O)CC(c1ccc(C(F)(F)F)cc1)c1cn(Cc2ccccc2)c2ccccc12` (stereo not shown) [B34, CC(C)CNC(=O)CC(C1=CC=C(C=C1)C(F)(F)F)C2=CN(C3=CC=CC=C32)CC4=CC=CC=C4] was 13.4%. Regarding `O=C(CC(c1cccc(C(F)(F)F)c1)c1cn(Cc2ccc(F)cc2)c2ccccc12)NCc1ccncc1` (stereo not shown) [B35, C1=CC=C2C(=C1)C(=CN2CC3=CC=C(C=C3)F)C(CC(=O)NCC4=CC=NC=C4)C5=CC(=CC=C5)C(F)(F)F], the inhibition at 10 µM under setting [1] was determined as 15.6%. On the same count and under the same terms, the result for `O=C(CC(c1ccc(C(F)(F)F)cc1)c1cn(Cc2ccccc2)c2ccccc12)NCc1ccncc1` (stereo not shown) [B36, C1=CC=C(C=C1)CN2C=C(C3=CC=CC=C32)C(CC(=O)NCC4=CC=NC=C4)C5=CC=C(C=C5)C(F)(F)F] reads 17.2%; that for `Cn1cc(C(CC(=O)NCCc2ccccn2)c2ccc(C(F)(F)F)cc2)c2ccccc21` (stereo not shown) [B38, CN1C=C(C2=CC=CC=C21)C(CC(=O)NCCC3=CC=CC=N3)C4=CC=C(C=C4)C(F)(F)F], 13.9%. As for `O=C(C1CCCN1C(=O)c1csc(Nc2ccc(F)cc2)n1)N1CCOCC1` (stereo not shown) [B39, C1CC(N(C1)C(=O)C2=CSC(=N2)NC3=CC=C(C=C3)F)C(=O)N4CCOCC4], the inhibition at 10 µM under setting [1] was 16.7%. `O=C(CC(c1ccc(C(F)(F)F)cc1)c1cn(Cc2ccc(F)cc2)c2ccccc12)NCCc1ccccn1` (stereo not shown) [WN1, C1=CC=C2C(=C1)C(=CN2CC3=CC=C(C=C3)F)C(CC(=O)NCCC4=CC=CC=N4)C5=CC=C(C=C5)C(F)(F)F]: the IC50 (usually the concentration at which inhibition is half-maximal) came to 3960 ± 140 nM. Moreover, the inhibition at 10 µM under setting [1] came out at 73.2%.

In turn, `Cc1ccc(Cn2cc([C@@H](CC(=O)NCCN(C)C)c3ccc(F)cc3)c3ccccc32)cc1` [WN2-S] came in with an IC50 of 113 ± 36.9 nM. The molecule `Cc1ccc(Cn2cc(C(CC(=O)NCCN(C)C)c3ccc(F)cc3)c3ccccc32)cc1` (stereo not shown) [WN2] registered an IC50 of 730 ± 120 nM. The inhibition at 10 µM under setting [1] was 91.5%.

“(C)C(CC(=O)NCCC1=CC=CC=N1)C2=CN(C3=CC=CC=C32)CC4=CC=CC=C4 [B37]”: the “Inhibitory activity (10 μM)” value under setting [1] is on record as 19.13% ± 16.30%.
